Results reported in the supplement of paper PMC11061612.

Assays:
[1] = compound: C1CC(C1)(C(=O)[O-])C(=O)[O-].N.N.[Pt+2] [Carboplatin]; conditions: max 10 µM
Method in brief: (§1)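 In 1536-well plates, cancer cell lines in 7.5 μl DMEM/F12 or RPMI with 10% FBS spent 24 hours at 37°C and 5% CO2 and were then dosed for 72 hours with final DMSO typically 0.2%. Viability was read by CellTiter-Glo 2.0 luminescence and scaled between blank-well and DMSO-well means. The single-agent IC50 was fitted from dose responses using a logistic curve in a non-linear mixed effects model, and that logistic curve had two parameters.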

[2] = compound: C1CN(CCC1(C(=O)N[C@@H](CCO)C2=CC=C(C=C2)Cl)N)C3=NC=NC4=C3C=CN4 [AZD5363]; conditions: max 10 µM
Method in brief: as §1

[3] = compound: C=CCn1c(=O)c2cnc(Nc3ccc(N4CCN(C)CC4)cc3)nc2n1-c1cccc(C(C)(C)O)n1 [AZD1775]; conditions: max 3 µM
Method in brief: as §1

[4] = compound: CC(=O)Nc1cccc(-n2c(=O)n(C3CC3)c(=O)c3c(Nc4ccc(I)cc4F)n(C)c(=O)c(C)c32)c1 [Trametinib]; conditions: max 1 µM
Method in brief: as §1

[5] = compound: CC(=O)O[C@H]1C(=O)[C@@]2(C)[C@H]([C@H](OC(=O)c3ccccc3)[C@]3(O)C[C@H](OC(=O)[C@H](O)[C@@H](NC(=O)c4ccccc4)c4ccccc4)C(C)=C1C3(C)C)[C@]1(OC(C)=O)CO[C@@H]1C[C@@H]2O [Paclitaxel]; conditions: max 3 µM
Method in brief: as §1

[6] = compound: CC(=O)c1c(C)c2cnc(Nc3ccc(N4CCNCC4)cn3)nc2n(C2CCCC2)c1=O [Palbociclib]; conditions: max 10 µM
Method in brief: as §1

[7] = compound: CC(C)n1c(=O)n(C)c2cnc3cc(F)c(-c4ccc(OCCCN5CCCCC5)nc4)cc3c21 [AZD1390]; conditions: max 0.3 µM
Method in brief: as §1

[8] = compound: CC1(C)CCC(CN2CCN(c3ccc(C(=O)NS(=O)(=O)c4ccc(NCC5CCOCC5)c([N+](=O)[O-])c4)c(Oc4cnc5[nH]ccc5c4)c3)CC2)=C(c2ccc(Cl)cc2)C1 [Venetoclax]; conditions: max 1 µM
Method in brief: as §1

[9] = compound: CC1=C(C(=CC=C1)Cl)NC(=O)C2=CN=C(S2)NC3=CC(=NC(=N3)C)N4CCN(CC4)CCO [Dasatinib]; conditions: max 2 µM
Method in brief: as §1

[10] = compound: CC1=CN2[C@@H](C1)C=NC3=CC(=C(C=C3C2=O)OC)OCCCCCOC4=C(C=C5C(=C4)N=C[C@@H]6CC(=CN6C5=O)C)OC [SG3199]; conditions: max 0.001 µM
Method in brief: as §1

[11] = compound: CCN(CCO)CCCOc1ccc2c(Nc3cc(CC(=O)Nc4cccc(F)c4)[nH]n3)ncnc2c1 [AZD2811]; conditions: max 1 µM
Method in brief: as §1

[12] = compound: CCc1c2c(nc3ccc(O)cc13)-c1cc3c(c(=O)n1C2)COC(=O)[C@]3(O)CC [SN-38]; conditions: max 0.3 µM
Method in brief: as §1

[13] = compound: CN(C)CCCOc1ccc(-c2ccc3ncc4c(c3c2)n(C2CCOCC2)c(=O)n4C)cn1 [AZD0156]; conditions: max 3 µM
Method in brief: as §1

[14] = compound: CN(CC[C@H](CSC1=CC=CC=C1)NC2=C(C=C(C=C2)S(=O)(=O)NC(=O)C3=CC=C(C=C3)N4CCC(CC4)[C@H](C5=CC=CC=C5C6=CC=C(C=C6)Cl)O)S(=O)(=O)C(F)(F)F)CCO [AZD4320]; conditions: max 1 µM
Method in brief: as §1

[15] = compound: COc1cc(Nc2ncc3c(n2)-c2ccc(Cl)cc2C(c2c(F)cccc2OC)=NC3)ccc1C(=O)O [Alisertib]; conditions: max 10 µM
Method in brief: as §1

[16] = compound: COc1cc([C@@H]2c3cc4c(cc3[C@@H](O[C@@H]3O[C@@H]5CO[C@@H](C)O[C@H]5[C@H](O)[C@H]3O)[C@H]3COC(=O)[C@H]23)OCO4)cc(OC)c1O [Etoposide]; conditions: max 10 µM
Method in brief: as §1

[17] = compound: COc1cc2ncnc(Nc3ccc(F)c(Cl)c3)c2cc1OCCCN1CCOCC1 [Gefitinib]; conditions: max 10 µM
Method in brief: as §1

[18] = compound: COc1cccc(OCCCN)c1-c1cc(Nc2cnc(C#N)cn2)n[nH]1 [Prexasertib]; conditions: max 1 µM
Method in brief: as §1

[19] = compound: COc1cccc2c1C(=O)c1c(O)c3c(c(O)c1C2=O)C[C@@](O)(C(=O)CO)C[C@@H]3O[C@H]1C[C@H](N)[C@H](O)[C@H](C)O1 [Doxorubicin]; conditions: max 1 µM
Method in brief: as §1

[20] = compound: COc1nnc2ccc(N3CCC(c4ccc(OCCN5CCN(C)C(=O)[C@H]5C)cc4)CC3)nn12 [AZD5153]; conditions: max 1 µM
Method in brief: as §1

[21] = compound: CS(=O)(=O)CCNCc1ccc(-c2ccc3ncnc(Nc4ccc(OCc5cccc(F)c5)c(Cl)c4)c3c2)o1 [Lapatinib]; conditions: max 10 µM
Method in brief: as §1

[22] = compound: C[C@@H](Nc1cc(F)cc(F)c1)c1cc(C(=O)N(C)C)cc2c(=O)cc(N3CCOCC3)oc12 [AZD8186]; conditions: max 10 µM
Method in brief: as §1

[23] = compound: C[C@@H](Oc1cc(-c2cnn(C3CCNCC3)c2)cnc1N)c1c(Cl)ccc(F)c1Cl [Crizotinib]; conditions: max 10 µM
Method in brief: as §1

[24] = compound: C[C@@H](c1ccc2nccn2c1)n1nnc2ncc(-c3cnn(C)c3)nc21 [Savolitinib]; conditions: max 1 µM
Method in brief: as §1

[25] = compound: C[C@@H]1COCCN1C2=NC(=NC(=C2)C3(CC3)[S@](=N)(=O)C)C4=C5C=CNC5=NC=C4 [AZD6738]; conditions: max 10 µM
Method in brief: as §1

[26] = compound: Cc1c2c(nn1C)CSCc1cc(n(C)n1)CSc1cc(c3ccccc3c1)OCCCc1c(C(=O)O)n(C)c3c-2c(Cl)ccc13 [AZD5991]; conditions: max 1 µM
Method in brief: as §1

[27] = compound: Cc1cc2ncnn2cc1Nc1ncc2c(n1)n(C1CCOCC1)c(=O)n2C [AZD7648]; conditions: max 10 µM
Method in brief: as §1

[28] = compound: Cc1nc(-c2cn3c(n2)-c2ccc(-c4cnn(C(C)(C)C(N)=O)c4)cc2OCC3)n(C(C)C)n1 [Taselisib]; conditions: max 10 µM
Method in brief: as §1

[29] = compound: Cn1cnc2c(F)c(Nc3ccc(Br)cc3Cl)c(C(=O)NOCCO)cc21 [Selumetinib]; conditions: max 10 µM
Method in brief: as §1

[30] = compound: N#Cc1cnc(Nc2cc(NC[C@H]3CNCCO3)c(C(F)(F)F)cn2)cn1 [SRA737]; conditions: max 10 µM
Method in brief: as §1

[31] = compound: NC1(c2ccc(-c3nc4ccn5c(=O)[nH]nc5c4cc3-c3ccccc3)cc2)CCC1 [MK-2206]; conditions: max 10 µM
Method in brief: as §1

[32] = compound: Nc1ccn([C@@H]2O[C@H](CO)[C@@H](O)C2(F)F)c(=O)n1 [Gemcitabine]; conditions: max 0.3 µM
Method in brief: as §1

[33] = compound: O=C(Nc1ccc2[nH]nc(-c3ccncc3)c2c1)[C@@H]1CCN(CC(=O)N2CCN(c3ccc(-c4ncccn4)cc3)CC2)C1; conditions: max 5 µM
Method in brief: as §1

[34] = compound: O=C(c1cc(Cc2n[nH]c(=O)c3ccccc23)ccc1F)N1CCN(C(=O)C2CC2)CC1 [Olaparib]; conditions: max 10 µM
Method in brief: as §1

[35] = compound: O=c1[nH]cc(F)c(=O)[nH]1 [5-Fluorouracil]; conditions: max 20 µM
Method in brief: as §1

| Cell Line | IC50, cell viability 72 h [1] | IC50, cell viability 72 h [2] | IC50, cell viability 72 h [3] | IC50, cell viability 72 h [4] | IC50, cell viability 72 h [5] | IC50, cell viability 72 h [6] | IC50, cell viability 72 h [7] | IC50, cell viability 72 h [8] | IC50, cell viability 72 h [9] | IC50, cell viability 72 h [10] | IC50, cell viability 72 h [11] | IC50, cell viability 72 h [12] | IC50, cell viability 72 h [13] | IC50, cell viability 72 h [14] | IC50, cell viability 72 h [15] | IC50, cell viability 72 h [16] | IC50, cell viability 72 h [17] | IC50, cell viability 72 h [18] | IC50, cell viability 72 h [19] | IC50, cell viability 72 h [20] | IC50, cell viability 72 h [21] | IC50, cell viability 72 h [22] | IC50, cell viability 72 h [23] | IC50, cell viability 72 h [24] | IC50, cell viability 72 h [25] | IC50, cell viability 72 h [26] | IC50, cell viability 72 h [27] | IC50, cell viability 72 h [28] | IC50, cell viability 72 h [29] | IC50, cell viability 72 h [30] | IC50, cell viability 72 h [31] | IC50, cell viability 72 h [32] | IC50, cell viability 72 h [33] | IC50, cell viability 72 h [34] | IC50, cell viability 72 h [35] |
| --- | --- | --- | --- | --- | --- | --- | --- | --- | --- | --- | --- | --- | --- | --- | --- | --- | --- | --- | --- | --- | --- | --- | --- | --- | --- | --- | --- | --- | --- | --- | --- | --- | --- | --- | --- |
| MDA-MB-415 (Breast Carcinoma) | > 10 µM | 0.727 µM | > 3 µM | > 1 µM | 0.0298 µM | > 10 µM | > 0.3 µM | > 1 µM | > 2 µM | > 0.001 µM | > 1 µM | > 0.3 µM | > 3 µM | 0.847 µM | > 10 µM | > 10 µM | > 10 µM | > 1 µM | > 1 µM | > 1 µM | > 10 µM | 0.216 µM | > 10 µM | > 1 µM | > 10 µM | > 1 µM | > 10 µM | 6.01 µM | > 10 µM | > 10 µM | 1.25 µM | > 0.3 µM | > 5 µM | > 10 µM | > 20 µM |
| MONO-MAC-6 (Acute Myeloid Leukemia) | > 10 µM | 5.27 µM | 0.535 µM | 0.446 µM | 0.00721 µM | > 10 µM | > 0.3 µM | > 1 µM | > 2 µM | > 0.001 µM | 0.303 µM | 0.00764 µM | > 3 µM | > 1 µM | 2.09 µM | 2.85 µM | > 10 µM | 0.052 µM | 0.127 µM | 0.0306 µM | > 10 µM | 6.44 µM | 2.98 µM | > 1 µM | 3.4 µM | 0.0678 µM | > 10 µM | 4.75 µM | > 10 µM | 3.35 µM | 4.14 µM | 0.00443 µM | 2.1 µM | > 10 µM | 1.63 µM |
| MS-1 (Small Cell Lung Carcinoma) | > 10 µM | > 10 µM | 0.531 µM | > 1 µM | 0.104 µM | > 10 µM | > 0.3 µM | > 1 µM | > 2 µM | > 0.001 µM | > 1 µM | 0.0577 µM | > 3 µM | > 1 µM | > 10 µM | 7.2 µM | > 10 µM | 0.022 µM | 0.244 µM | 0.12 µM | > 10 µM | > 10 µM | 6.28 µM | > 1 µM | 4.38 µM | > 1 µM | > 10 µM | > 10 µM | > 10 µM | 9.42 µM | > 10 µM | 0.197 µM | > 5 µM | > 10 µM | > 20 µM |
